Assay results taken from PubChem BioAssay (NCI).
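Briefly, cells in 96-well plates were exposed to five compound concentrations for 48 h, and endpoints were estimated by linear interpolation. Definition used: TGI = concentration required for complete inhibition of growth.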

Legend:
Assay in all cases: growth of human tumour cells (NCI), 48 h
OVCAR-3 ovarian = system: OVCAR-3 ovarian
NCI-H226 lung = system: NCI-H226 lung
UO-31 renal = system: UO-31 renal
IGROV1 ovarian = system: IGROV1 ovarian
NCI-H522 lung = system: NCI-H522 lung
SW-620 colon = system: SW-620 colon
DLD-1 colon = system: DLD-1 colon
SK-MEL-28 melanoma = system: SK-MEL-28 melanoma
SK-OV-3 ovarian = system: SK-OV-3 ovarian
786-0 renal = system: 786-0 renal
HOP-18 NSCLC = system: HOP-18 NSCLC
OVCAR-4 ovarian = system: OVCAR-4 ovarian
M14 melanoma = system: M14 melanoma
SK-MEL-2 melanoma = system: SK-MEL-2 melanoma
HCT-116 colon = system: HCT-116 colon
RPMI-8226 leukemia = system: RPMI-8226 leukemia
M19-MEL melanoma = system: M19-MEL melanoma
HL-60(TB) leukemia = system: HL-60(TB) leukemia
SF-539 CNS = system: SF-539 CNS
CAKI-1 renal = system: CAKI-1 renal
HCC-2998 colon = system: HCC-2998 colon
K-562 leukemia = system: K-562 leukemia
HOP-62 NSCLC = system: HOP-62 NSCLC
TK-10 renal = system: TK-10 renal
UACC-62 melanoma = system: UACC-62 melanoma
UACC-257 melanoma = system: UACC-257 melanoma
A498 renal = system: A498 renal
SN12C renal = system: SN12C renal
OVCAR-8 ovarian = system: OVCAR-8 ovarian
DMS 114 small cell lung = system: DMS 114 small cell lung
SNB-75 CNS = system: SNB-75 CNS
A549 NSCLC = system: A549 NSCLC
SNB-78 CNS = system: SNB-78 CNS
U251 CNS = system: U251 CNS
RXF 393 renal = system: RXF 393 renal
KM20L2 colon = system: KM20L2 colon
HCT-15 colon = system: HCT-15 colon
SK-MEL-5 melanoma = system: SK-MEL-5 melanoma
SNB-19 CNS = system: SNB-19 CNS
SR leukemia = system: SR leukemia
MOLT-4 leukemia = system: MOLT-4 leukemia
NCI-H460 lung = system: NCI-H460 lung
KM12 colon = system: KM12 colon
ACHN renal = system: ACHN renal
MALME-3M melanoma = system: MALME-3M melanoma
DMS 273 small cell lung = system: DMS 273 small cell lung
CCRF-CEM leukemia = system: CCRF-CEM leukemia
LXFL 529 NSCLC = system: LXFL 529 NSCLC
COLO 205 colon = system: COLO 205 colon
SF-268 CNS = system: SF-268 CNS
HT29 colon = system: HT29 colon
OVCAR-5 ovarian = system: OVCAR-5 ovarian
NCI-H23 lung = system: NCI-H23 lung
XF 498 CNS = system: XF 498 CNS
SF-295 CNS = system: SF-295 CNS
HOP-92 NSCLC = system: HOP-92 NSCLC
EKVX NSCLC = system: EKVX NSCLC

Measured: TGI

CC1CC(C[N+](=O)[O-])CC2(C1)OCCO2 (stereo unspecified)
not listed: HT29 colon | OVCAR-5 ovarian | NCI-H23 lung | XF 498 CNS | SF-295 CNS | HOP-92 NSCLC | EKVX NSCLC
> 100 µM: all other assays above

COc1ccc(CN(CCN(C)C)c2ccccn2)cc1 (tested in a mixture with another compound)
not listed: NCI-H226 lung | OVCAR-4 ovarian | HCT-116 colon | RPMI-8226 leukemia | M19-MEL melanoma | HL-60(TB) leukemia | HCC-2998 colon | UACC-62 melanoma | A549 NSCLC | RXF 393 renal | SR leukemia | NCI-H460 lung | DMS 273 small cell lung | COLO 205 colon | EKVX NSCLC
> 100 µM: all other assays above

CC(=O)c1ccc(N2C(=O)C3c4[nH]c5ccccc5c4C4CCC(C(C)(C)C)CC4C3C2=O)cc1 (stereo unspecified)
67.8 µM: M14 melanoma
47.1 µM: HOP-92 NSCLC
32.7 µM: RXF 393 renal
46.1 µM: SF-539 CNS
42.1 µM: M19-MEL melanoma
61.9 µM: NCI-H522 lung
54.7 µM: OVCAR-8 ovarian
39.8 µM: U251 CNS
32.6 µM: HT29 colon
32.8 µM: SN12C renal
88.9 µM: SF-295 CNS
30.7 µM: HCT-116 colon
59.3 µM: UACC-62 melanoma
94.1 µM: EKVX NSCLC
92.8 µM: HCT-15 colon
94.8 µM: OVCAR-4 ovarian
54 µM: RPMI-8226 leukemia
58.8 µM: SK-MEL-5 melanoma
54.3 µM: SW-620 colon
76.9 µM: HL-60(TB) leukemia
71.3 µM: A498 renal
38.5 µM: HOP-62 NSCLC
34.3 µM: 786-0 renal
35.8 µM: HCC-2998 colon
74.9 µM: SNB-78 CNS
34.4 µM: MALME-3M melanoma
59.8 µM: DMS 114 small cell lung
36.7 µM: SF-268 CNS
70.9 µM: SR leukemia
36.4 µM: KM20L2 colon
33.3 µM: DMS 273 small cell lung
94.7 µM: SNB-75 CNS
29.1 µM: COLO 205 colon
45.3 µM: NCI-H23 lung
47.6 µM: NCI-H226 lung
50.9 µM: A549 NSCLC
83.2 µM: SK-MEL-28 melanoma
87.9 µM: ACHN renal
not listed: OVCAR-3 ovarian | SK-MEL-2 melanoma | CAKI-1 renal | TK-10 renal | NCI-H460 lung | KM12 colon | OVCAR-5 ovarian | XF 498 CNS
> 100 µM: all other assays above
